According to PMC5972182, “Comparison of a Rat Primary Cell-Based Blood-Brain Barrier Model With Epithelial and Brain Endothelial Cell Lines: Gene Expression and Drug Transport” (Frontiers in Molecular Neuroscience, 2018):

Key:
[1] = Permeability across primary rat brain endothelial cell-based triple co-culture BBB model (EPA)
[2] = Permeability across vinblastine-selected VB-Caco-2 cell layers; conditions: human
[3] = test system: VB-Caco-2 cells
[4] = in vitro; conditions: rat
[5] = in vitro; conditions: human, Caco-2
[6] = test system: hCMEC/D3 cells; assay: Transendothelial electrical resistance (TEER) of D3 cells after lithium treatment; assay type: cell-based, human; conditions: 10 mM lithium chloride in medium; unpaired t-test, P < 0.0004
Method: (§1) Cultures of human brain endothelial hCMEC/D3 cell line (≤passage number 35) were grown in MCDB 131 medium (Pan Biotech) supplemented with 5% FBS, GlutaMAX (100×, LifeTechnologies, Carlsbad, CA, USA), lipid supplement (100×, Life Technologies, Carlsbad, CA, USA), 10 μg/ml ascorbic acid, 550 nM hydrocortisone, 100 μg/ml heparin, 1 ng/ml basic fibroblast growth factor (bFGF, Roche, USA), 2.5 μg/ml insulin, 2.5 μg/ml transferrin, 2.5 ng/ml sodium selenite and 50 μg/ml gentamicin (Weksler et al., [2005]). For differentiation of this cell line (D3L group), the medium was supplemented with 10 mM lithium chloride (LiCl) at the first change of medium (Paolinelli et al., [2013]). For the three brain endothelial cell lines, we used culture media with very similar or identical composition to those that were originally described for their growth and maintenance.
Transendothelial electrical resistance (TEER), reflecting the permeability of TJ for sodium ions, was measured by an EVOM voltohmmeter (World Precision Instruments, Sarasota, FL, USA) combined with STX-2 electrodes. Recorded resistance was expressed to the surface area of the filters (Ω × cm^2, Transwell inserts, […] membrane, 0.4 μm pore size, Corning Costar, USA). TEER of cell-free inserts (110 Ω × cm^2) was subtracted from the measured data.

[7] = Permeability across MDCK cell layers; assay type: in vitro ADME, canine; conditions: dog, fluorescein 10 μg/ml, mean ± SD
[8] = Permeability across RBE4 brain endothelial cell line; assay type: in vitro ADME; conditions: rat, fluorescein 10 μg/ml, mean ± SD
Method: RBE4 rat brain endothelial cell line (provided by Dr. Pierre-Olivier Couraud, Institut Cochin, Paris, France) was grown in DMEM/ HAM’s F-12, supplemented with 10% FBS, 1 ng/ml bFGF and 50 μg/ml gentamicin.

[9] = Permeability across Caco-2 epithelial cell layers; assay type: in vitro ADME; conditions: human, CaCo2, fluorescein 10 μg/ml, mean ± SD
[10] = Permeability across lithium-treated hCMEC/D3 (D3L) cells; assay type: in vitro ADME; conditions: human, D3L (10 mM LiCl), fluorescein 10 μg/ml, mean ± SD
Method: as §1

[11] = Permeability across MDCK-MDR1 cell layers; assay type: in vitro ADME, canine; conditions: dog, fluorescein 10 μg/ml, mean ± SD
[12] = Permeability across hCMEC/D3 (D3) brain endothelial cell line; assay type: in vitro ADME; conditions: human, fluorescein 10 μg/ml, mean ± SD
Method: as §1

[13] = Permeability across GP8 brain endothelial cell line; assay type: in vitro ADME; conditions: rat, fluorescein 10 μg/ml, mean ± SD
Method: GP8 rat brain endothelial cell line (provided by Dr. John Greenwood, University College London, UK) was cultured in DMEM/ HAM’s F-12, 15% PDS, 100 μg/ml heparin, 1 ng/ml bFGF and 50 μg/ml gentamicin.

## CC(C)c1nc(N(C)S(C)(=O)=O)nc(-c2ccc(F)cc2)c1/C=C/[C@@H](O)C[C@@H](O)CC(=O)O [Rosuvastatin, rosuvastatin]
[1]; Wistar
  Papp A→B: 11.3 ×10⁻⁶ cm/s
[2]
  Papp A→B: 0.38 ×10⁻⁶ cm/s

## O=C(O)c1ccccc1O [Salicylic acid, salicylic acid]
[1]; Wistar
  Papp A→B: 4.78 ×10⁻⁶ cm/s
[2]
  Papp A→B: 7.6 ×10⁻⁶ cm/s

## CO[C@H]1[C@H](O)[C@@H](CO)OC(O)[C@@H]1O (stereo partly drawn) [Glucopyranose, 3-O-methyl-D-glucopyranose]
[1]; Wistar
  Papp A→B: < 65.7 ×10⁻⁶ cm/s
[2]
  Papp A→B: 17.2 ×10⁻⁶ cm/s

## NCC1(CC(=O)O)CCCCC1 [Gabapentin, gabapentin]
[3]
  Papp A-B: below the detection limit
[4]; Wistar
  Papp A→B: 2.98 ×10⁻⁶ cm/s
[4]
  efflux ratio: 0.92
[5]
  Papp A→B: < 0.88 ×10⁻⁶ cm/s
  efflux ratio: > 0.27

## CCCN(CCC)S(=O)(=O)c1ccc(C(=O)O)cc1 [Probenecid, probenecid]
[1]; Wistar
  Papp A→B: 19 ×10⁻⁶ cm/s
[2]
  Papp A→B: 33.4 ×10⁻⁶ cm/s

## NCC(CC(=O)O)c1ccc(Cl)cc1 (centres unmarked) [Baclofen, baclofen]
[1]; Wistar
  Papp A→B: 16.3 ×10⁻⁶ cm/s
[2]
  Papp A→B: 0.31 ×10⁻⁶ cm/s

## N[C@@H](Cc1ccc(O)c(O)c1)C(=O)O [L-DOPA, 3,4-dihydroxy-L-phenylalanine]
[1]
  efflux ratio at 10 μM: 0.4
[1]; Wistar
  Papp A→B: 73 ± 4 ×10⁻⁶ cm/s

## CC[C@H](C)C(=O)O[C@H]1C[C@H](O)C=C2C=C[C@H](C)[C@H](CC[C@@H](O)C[C@@H](O)CC(=O)O)[C@H]21 [Pravastatin, pravastatin]
[1]; Wistar
  Papp A→B: 7.61 ×10⁻⁶ cm/s
[2]
  Papp A→B: 0.19 ×10⁻⁶ cm/s

## [Cl-].[Li+] [lithium, lithium chloride]
[6]
  Effect on TEER of D3 cells: significantly elevated

## O=C1OC2(c3ccc(O)cc3Oc3cc(O)ccc32)c2ccccc21 [Fluorescein, fluorescein]
[7]
  Papp at 30 min, 10 µg/ml: 2.8 ± 0.23 ×10⁻⁶ cm/s
[8]
  Papp at 30 min, 10 µg/ml: 27.4 ± 1.63 ×10⁻⁶ cm/s
[9]
  Papp at 30 min, 10 µg/ml: 1.5 ± 0.28 ×10⁻⁶ cm/s
[10]
  Papp at 30 min, 10 µg/ml: 19.3 ± 1.22 ×10⁻⁶ cm/s
[11]
  Papp at 30 min, 10 µg/ml: 2.7 ± 0.31 ×10⁻⁶ cm/s
[12]
  Papp at 30 min, 10 µg/ml: 22.2 ± 3.71 ×10⁻⁶ cm/s
[1]; Wistar
  Papp at 30 min, 10 µg/ml: 2.1 ± 0.25 ×10⁻⁶ cm/s
[2]
  Papp at 30 min, 10 µg/ml: 0.3 ± 0.06 ×10⁻⁶ cm/s
[13]
  Papp at 30 min, 10 µg/ml: 39.8 ± 3.51 ×10⁻⁶ cm/s

## Nc1c2c(nc3ccccc13)CCCC2 [tacrine]
[4]; Wistar
  Papp at 30 min, 0.5 µM: 102 ± 27 ×10⁻⁶ cm/s

## CCCC(CCC)C(=O)O [Valproic acid, valproic acid]
[1]; Wistar
  Papp A→B: 39.4 ×10⁻⁶ cm/s
[2]
  Papp A→B: 42.2 ×10⁻⁶ cm/s
